According to patent publication US9586962B2, “Disubstituted octahydropyrrolo [3,4-C] pyrroles as orexin receptor modulators” (Janssen Pharmaceutica NV, priority 2011, dated 2017):

Molecular target: human orexin 2 receptor (Homo sapiens (Human), UniProt O43614)
Test: Human orexin 2 receptor Ca2+ mobilization assay (FLIPR, PFSK cells, orexin B 100 nM)
Assay type: cell-based
Conditions: modified Cheng-Prusoff correction, read-out: OR 2 Kb
Experimental: Human Orexin 2 Receptor Ca^2+ Mobilization Assay
Cells were seeded on to 96-well Packard viewplates at a density of 50,000 cells/well and incubated overnight at 37° C., 5% CO2. The cells were dye-loaded with 4 μM Ca^2+ dye Fluo-3AM in serum-free DMEM/F-12 with 2.5 mM probenecid and incubated at 37° C., 5% CO2 for one hour. Cells were pre-incubated with compounds (diluted in DMEM/F-12) for 30 minutes before agonist (orexin B, 100 nM) stimulation. Ligand-induced Ca^2+ release was measured using a Fluorometric Imaging Plate Reader (FLIPR, Molecular Devices, Sunnyvale, Calif.). Functional responses were measured as peak fluorescence intensity minus basal. The concentration of agonist that produced a half-maximal response is represented by the EC50 value. Antagonistic potency values were converted to apparent pKB values using a modified Cheng-Prusoff correction. Apparent pKB=−log IC50/1+[conc agonist/EC50]. Data are expressed as mean±S.E.M, the designation of NT means not tested.

human orexin 2 receptor, sequence (O43614 whole entry): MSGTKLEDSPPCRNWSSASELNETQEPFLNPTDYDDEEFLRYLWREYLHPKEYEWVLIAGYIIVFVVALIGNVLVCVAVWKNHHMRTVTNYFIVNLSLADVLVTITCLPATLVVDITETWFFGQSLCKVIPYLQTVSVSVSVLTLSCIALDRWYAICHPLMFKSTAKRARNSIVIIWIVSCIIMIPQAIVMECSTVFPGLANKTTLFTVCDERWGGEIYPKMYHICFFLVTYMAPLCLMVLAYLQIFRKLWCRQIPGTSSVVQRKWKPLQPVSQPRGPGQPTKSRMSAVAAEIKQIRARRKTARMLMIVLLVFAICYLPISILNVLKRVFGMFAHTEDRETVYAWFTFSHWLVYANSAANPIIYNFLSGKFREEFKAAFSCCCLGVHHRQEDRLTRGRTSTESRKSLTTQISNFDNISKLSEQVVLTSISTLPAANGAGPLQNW

Structure (SMILES)	Kb [nM]
O=C(c1ccccc1-n1nccn1)N1CC2CN(c3nccc(-c4cccs4)n3)CC2C1 (stereo not shown) [Example 143, 2-(4-Thiophen-2-ylpyrimidin-2-yl)-5-{[2-(2H-1,2,3-triazol-2-yl)phenyl]carbonyl}octahydropyrrolo[3,4-c]pyrrole]	79
O=C(c1cccc(F)c1-n1nccn1)N1CC2CN(c3ncc4cc(F)ccc4n3)CC2C1 (stereo not shown) [Example 242, (3-Fluoro-2-(2H-1,2,3-triazol-2-yl)phenyl)(5-(6-fluoroquinazolin-2-yl)hexahydropyrrolo[3,4-c]pyrrol-2(1H)-yl)methanone]	13
Cc1cnc(C)c(N2CC3CN(C(=O)c4ccc(F)cc4-n4nccn4)CC3C2)n1 (stereo not shown) [Example 104, 2-(3,6-Dimethylpyrazin-2-yl)-5-{[4-fluoro-2-(2H-1,2,3-triazol-2-yl)phenyl]carbonyl}octahydropyrrolo[3,4-c]pyrrole]	25
CN(C)c1nc(N2CC3CN(C(=O)c4cc(F)ccc4-c4ncccn4)CC3C2)cc(C(F)(F)F)n1 (stereo not shown) [Example 109, 4-{5-[(5-Fluoro-2-pyrimidin-2-ylphenyl)carbonyl]hexahydropyrrolo[3,4-c]pyrrol-2(1H)-yl}-N,N-dimethyl-6-(trifluoromethyl)pyrimidin-2-amine]	25
COc1ccnc(N2CC3CN(C(=O)c4ccccc4-n4nccn4)CC3C2)n1 (stereo not shown) [Example 156, 2-(4-Methoxypyrimidin-2-yl)-5-{[2-(2H-1,2,3-triazol-2-yl)phenyl]carbonyl}octa hydropyrrolo[3,4-c]pyrrole]	16
Cc1cc(N2CC3CN(C(=O)c4ccccc4-n4nccn4)CC3C2)nc(C(F)(F)F)n1 (stereo not shown) [Example 97, 2-[6-Methyl-2-(trifluoromethyl)pyrimidin-4-yl]-5-{[2-(2H-1,2,3-triazol-2-yl)phenyl]carbonyl}octahydropyrrolo[3,4-c]pyrrole]	16
O=C(c1cc(F)ccc1-c1ncccn1)N1CC2CN(c3nccc(-c4ccccc4)n3)CC2C1 (stereo not shown) [Example 113, 2-[(5-Fluoro-2-pyrimidin-2-ylphenyl)carbonyl]-5-(4-phenylpyrimidin-2-yl)octahydropyrrolo[3,4-c]pyrrole]	63
COc1cc(OC)nc(N2CC3CN(C(=O)c4ccccc4-n4nccn4)CC3C2)n1 (stereo not shown) [Example 84, 2-(4,6-Dimethoxypyrimidin-2-yl)-5-{[2-(2H-1,2,3-triazol-2-yl)phenyl]carbonyl}octahydropyrrolo[3,4-c]pyrrole]	25
Cc1nc(N2CC3CN(C(=O)c4cccc(F)c4-n4nccn4)CC3C2)nc(C)c1C (stereo not shown) [Example 240, (3-Fluoro-2-(2H-1,2,3-triazol-2-yl)phenyl)(5-(4,5,6-trimethylpyrimidin-2-yl)hexahydropyrrolo[3,4-c]pyrrol-2(1H)-yl)methanone]	3
CCOc1ccc2ccccc2c1C(=O)N1CC2CN(c3nccc(-c4ccccc4)n3)CC2C1 (stereo not shown) [Example 126, 2-[(2-Ethoxynaphthalen-1-yl)carbonyl]-5-(4-phenylpyrimidin-2-yl)octahydro pyrrolo[3,4-c]pyrrole]	100
COc1ccnc(N2CC3CN(C(=O)c4cc(F)ccc4-c4ncccn4)CC3C2)n1 (stereo not shown) [Example 150, 2-[(5-Fluoro-2-pyrimidin-2-ylphenyl)carbonyl]-5-(4-methoxypyrimidin-2-yl)octahydropyrrolo[3,4-c]pyrrole]	40

More lines, now with the values ahead:

Kb [nM]	Structure (SMILES)
79	Cc1cc(C)nc(N2CC3CN(C(=O)c4occc4-c4ccccc4)CC3C2)n1 (stereo not shown) [Example 13, 2-(4,6-Dimethylpyrimidin-2-yl)-5-[(3-phenylfuran-2-yl)carbonyl]octahydropyrrolo[3,4-c]pyrrole]
18	Cc1cc(C)nc(N2CC3CN(C(=O)c4cccnc4-c4ccn[nH]4)CC3C2)n1 (stereo not shown) [Example 237, (2-(1H-Pyrazol-5-yl)pyridin-3-yl)(5-(4,6-dimethylpyrimidin-2-yl)hexahydropyrrolo[3,4-c]pyrrol-2(1H)-yl)methanone]
631	COc1ccc(C(=O)N2CC3CN(c4nccc(-c5ccccc5)n4)CC3C2)c(OC)c1 (stereo not shown) [Example 167, 2-[(2,4-Dimethoxyphenyl)carbonyl]-5-(4-phenylpyrimidin-2-yl)octahydropyrrolo[3,4-c]pyrrole]
25	CCOc1ccccc1C(=O)N1CC2CN(c3nc(C)cc(C)n3)CC2C1 (stereo not shown) [Example 88, 2-(4,6-Dimethylpyrimidin-2-yl)-5-[(2-ethoxyphenyl)carbonyl]octahydropyrrolo[3,4-c]pyrrole]
8	Cc1cc(C)nc(N2CC3CN(C(=O)c4ccccc4-c4ccccn4)CC3C2)n1 (stereo not shown) [Example 69, 2-(4,6-Dimethylpyrimidin-2-yl)-5-[(2-pyridin-2-ylphenyl)carbonyl]octahydro-pyrrolo[3,4-c]pyrrole]
7	COc1ccc(C(=O)N2CC3CN(c4nc(C)cc(C)n4)CC3C2)c(-c2ncccn2)c1 (stereo not shown) [Example 272, (5-(4,6-Dimethylpyrimidin-2-yl)hexahydropyrrolo[3,4-c]pyrrol-2(1H)-yl)(4-methoxy-2-(pyrimidin-2-yl)phenyl)methanone]
9	Cc1cc(C)nc(N2CC3CN(C(=O)c4ccccc4-c4nnc[nH]4)CC3C2)n1 (stereo not shown) [Example 14, 2-(4,6-Dimethylpyrimidin-2-yl)-5-{[2-(1H-1,2,4-triazol-5-yl)phenyl]carbonyl}octahydro-pyrrolo[3,4-c]pyrrole]
5	CCc1c(C)nc(N2CC3CN(C(=O)c4ccccc4-c4ncn(C)n4)CC3C2)nc1C (stereo not shown) [Example 322, 2-(5-Ethyl-4,6-dimethylpyrimidin-2-yl)-5-{[2-(1-methyl-1H-1,2,4-triazol-3-yl)phenyl]carbonyl}octahydropyrrolo[3,4-c]pyrrole]
158	O=C(c1ccccc1-c1ccccc1)N1CC2CN(c3nc4ccc(F)cc4s3)CC2C1 (stereo not shown) [Example 176, 2-[5-(Biphenyl-2-ylcarbonyl)hexahydropyrrolo[3,4-c]pyrrol-2(1H)-yl]-6-fluoro-1,3-benzothiazole]
10	Cc1cc(C)nc(N2CC3CN(C(=O)c4c(F)cccc4-c4nc(C)no4)CC3C2)n1 (stereo not shown) [Example 315, 2-(4,6-Dimethylpyrimidin-2-yl)-5-{[2-fluoro-6-(3-methyl-1,2,4-oxadiazol-5-yl)phenyl]carbonyl}octahydropyrrolo[3,4-c]pyrrole]
50	Cc1cc(C)nc(N2CC3CN(C(=O)c4ccccc4-c4cccc(F)c4)CC3C2)n1 (stereo not shown) [Example 52, 2-(4,6-Dimethylpyrimidin-2-yl)-5-[(3′-fluorobiphenyl-2-yl)carbonyl]octahydro-pyrrolo[3,4-c]pyrrole]
6	Cc1noc(-c2ccccc2C(=O)N2CC3CN(c4nc(C)c(C)c(C)n4)CC3C2)n1 (stereo not shown) [Example 309, 2-{[2-(3-Methyl-1,2,4-oxadiazol-5-yl)phenyl]carbonyl}-5-(4,5,6-trimethylpyrimidin-2-yl)octahydropyrrolo[3,4-c]pyrrole]
2	Cc1nc(N2CC3CN(C(=O)c4ccccc4-c4ncn(C)n4)CC3C2)nc(C)c1Cl (stereo not shown) [Example 320, 2-(5-Chloro-4,6-dimethylpyrimidin-2-yl)-5-{[2-(1-methyl-1H-1,2,4-triazol-3-yl)phenyl]carbonyl}octahydropyrrolo[3,4-c]pyrrole]
40	Cc1ccnc(N2CC3CN(C(=O)c4ccccc4-n4nccn4)CC3C2)n1 (stereo not shown) [Example 135, 2-(4-Methylpyrimidin-2-yl)-5-{[2-(2H-1,2,3-triazol-2-yl)phenyl]carbonyl}octahydro pyrrolo[3,4-c]pyrrole]
